# How the values were obtained:
# [1] = target: T1, human recombinant adrenergic α2A receptor (Homo sapiens, UniProt P08913); experiment: Adrenergic α2A radioligand binding ([3H]MK-912); conditions: 0.1 μM compound; 0.1 µM
# T1 construct: expressed in transfected cells; host or cells: insect Sf9 cells
# T1 sequence (P08913 1-465): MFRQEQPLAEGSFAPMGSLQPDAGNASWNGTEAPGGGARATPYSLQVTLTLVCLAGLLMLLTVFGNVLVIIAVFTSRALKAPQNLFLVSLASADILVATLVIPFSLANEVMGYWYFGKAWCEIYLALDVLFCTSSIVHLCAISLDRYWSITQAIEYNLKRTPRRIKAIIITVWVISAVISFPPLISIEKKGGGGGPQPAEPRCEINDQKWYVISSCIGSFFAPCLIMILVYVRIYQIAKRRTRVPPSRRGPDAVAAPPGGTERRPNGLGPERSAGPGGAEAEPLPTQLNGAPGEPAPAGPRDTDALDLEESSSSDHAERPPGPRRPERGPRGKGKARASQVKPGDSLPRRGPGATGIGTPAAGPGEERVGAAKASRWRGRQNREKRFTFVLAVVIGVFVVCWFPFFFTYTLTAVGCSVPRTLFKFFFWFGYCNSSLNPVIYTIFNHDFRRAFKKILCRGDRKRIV
# Procedure: To evaluate in radioligand binding assays the activity of compounds of the invention, human recombinant adrenergic α2A receptor expressed in insect Sf9 cells (Uhlen, S. et al, J. Pharmacol. Exp. Ther. 271:1558, 1994) in a modified Tris-HCl buffer (50 mM Tris-HCl, pH 7.4, 12.5 mM MgCl2, 2 mM EDTA) was used. Compounds of invention were incubated with 1 nM [^3H]MK-912 for 60 min at 25° C. MK-912 is (2S-trans)-1,3,4,5′,6,6′,7,12b-octahydro-1′,3′-dimethyl-spiro[2H-benzofuro[2,3-a]quinolizine-2,4′(1′H)-pyrimidin]-2′(3′H)-one hydrochloride Non-specific binding was estimated in the presence of 10 μM WB-4101 (2-(2,6-Dimethoxyphenoxyethyl)aminomethyl-1,4-benzodioxane hydrochloride). Receptor proteins were filtered and washed, the filters were then counted to determine [^3H]MK-912 specifically bound. Compounds were screened at 1 μM or lower, using 1% DMSO as vehicle. Biochemical assay results are presented as the percent inhibition of specific binding in Table 3.
# [2] = target: T2, human recombinant adrenergic α2B receptor (Homo sapiens, UniProt P18089); experiment: Adrenergic α2B radioligand binding ([3H]Rauwolscine); conditions: 0.03 μM compound; 0.03 µM
# T2 construct: expressed in transfected cells; host or cells: CHO-K1
# T2 sequence (P18089 1-450): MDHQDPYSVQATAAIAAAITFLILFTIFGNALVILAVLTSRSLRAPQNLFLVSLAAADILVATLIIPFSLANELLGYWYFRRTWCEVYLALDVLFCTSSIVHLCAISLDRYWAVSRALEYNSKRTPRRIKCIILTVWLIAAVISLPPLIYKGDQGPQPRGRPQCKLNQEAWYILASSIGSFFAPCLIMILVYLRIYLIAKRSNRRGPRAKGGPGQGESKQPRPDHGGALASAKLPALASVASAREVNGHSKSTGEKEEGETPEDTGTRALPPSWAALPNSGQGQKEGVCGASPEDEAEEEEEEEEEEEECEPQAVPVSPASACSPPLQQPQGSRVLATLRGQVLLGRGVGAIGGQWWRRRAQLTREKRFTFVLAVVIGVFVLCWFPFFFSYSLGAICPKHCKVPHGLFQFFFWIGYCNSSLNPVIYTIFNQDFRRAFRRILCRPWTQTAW
# Procedure: To evaluate in radioligand binding assays the activity of compounds of the invention, human recombinant adrenergic α2B receptor expressed in Chinese hamster ovary (CHO) K1 cells (Uhlen, S. et al, Eur. J. Pharmacol. 343(1):93, 1998) in a modified Tris-HCl buffer (50 mM Tris-HCl, pH 7.4, 12.5 mM MgCl2, 1 mM EDTA, 0.2% BSA) was used. Compounds of the invention were incubated with 2.5 nM [^3H]Rauwolscine for 60 min at 25° C. Non-specific binding was estimated in the presence of 10 μM Prazosin. Receptor proteins were filtered and washed, the filters were then counted to determine [^3H]Rauwolscine specifically bound. Compounds were screened at 1 μM or lower, using 1% DMSO as vehicle. Biochemical assay results are presented as the percent inhibition of specific binding in Table 3.
# [3] = target: T3, rat adrenergic α1B receptor (Rattus norvegicus, UniProt P15823); experiment: Adrenergic α1B radioligand binding ([3H]Prazosin); conditions: 0.1 μM compound; 0.1 µM
# T3 construct: rat adrenergic α1B receptor obtained from Wistar Rat liver; from tissue; host or cells: Wistar rat liver
# T3 sequence (P15823 1-515): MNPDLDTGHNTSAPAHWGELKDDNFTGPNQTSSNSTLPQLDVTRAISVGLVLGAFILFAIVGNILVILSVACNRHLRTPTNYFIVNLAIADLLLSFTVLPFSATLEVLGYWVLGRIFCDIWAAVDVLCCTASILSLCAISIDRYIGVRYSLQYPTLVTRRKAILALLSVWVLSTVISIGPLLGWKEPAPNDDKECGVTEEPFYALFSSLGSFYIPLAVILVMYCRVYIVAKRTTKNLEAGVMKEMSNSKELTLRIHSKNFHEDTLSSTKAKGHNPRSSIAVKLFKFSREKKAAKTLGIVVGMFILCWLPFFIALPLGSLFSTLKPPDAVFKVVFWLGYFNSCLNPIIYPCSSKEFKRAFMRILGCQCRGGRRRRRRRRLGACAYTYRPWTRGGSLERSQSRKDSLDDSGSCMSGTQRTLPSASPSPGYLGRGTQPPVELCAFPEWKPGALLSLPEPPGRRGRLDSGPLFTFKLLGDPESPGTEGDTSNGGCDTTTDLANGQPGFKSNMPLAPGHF
# Procedure: To evaluate in radioligand binding assays the activity of compounds of the invention, rat adrenergic α1B receptor obtained from Wistar Rat liver (Garcia-S'ainz, J. et al, Biochem. Biophys. Res. Commun. 186:760, 1992; Michel, A. et al, Br. J. Pharmacol. 98:883, 1989) in a modified Tris-HCl buffer (50 mM Tris-HCl buffer, pH 7.4, 0.5 mM EDTA) was used. Compounds of the invention were incubated with 0.25 nM [^3H]Prazosin for 60 min at 25° C. Non-specific binding was estimated in the presence of 10 μM phentolamine. Receptor proteins were filtered and washed, the filters were then counted to determine [^3H]Prazosin specifically bound. Compounds were screened at 1 μM or lower, using 1% DMSO as vehicle. Biochemical assay results are presented as the percent inhibition of specific binding in Table 3.
# [4] = target: T4, human recombinant histamine H1 receptor (Homo sapiens, UniProt P35367); experiment: Histamine H1 radioligand binding ([3H]Pyrilamine); conditions: 0.1 μM compound; 0.1 µM
# T4 construct: expressed in transfected cells; host or cells: CHO-K1
# Procedure: To evaluate in radioligand binding assays the activity of compounds of the invention, human recombinant histamine H1 receptor expressed in Chinese hamster ovary (CHO) K1 cells (De Backer, M. et al, Biochem. Biophys. Res. Comm. 197(3):1601, 1993) in a modified Tris-HCl buffer (50 mM Tris-HCl, pH 7.4, 2 mM MgCl2, 100 mM NaCl, 250 mM Sucrose) was used. Compounds of the invention were incubated with 1.2 nM [^3H]Pyrilamine for 180 min at 25° C. Non-specific binding was estimated in the presence of 1 μM Pyrilamine. Receptor proteins were filtered and washed, the filters were then counted to determine [^3H]Pyrilamine specifically bound. Compounds were screened at 1 μM or lower, using 1% DMSO as vehicle. Biochemical assay results are presented as the percent inhibition of specific binding in Table 3.
# T4 sequence (P35367 whole entry): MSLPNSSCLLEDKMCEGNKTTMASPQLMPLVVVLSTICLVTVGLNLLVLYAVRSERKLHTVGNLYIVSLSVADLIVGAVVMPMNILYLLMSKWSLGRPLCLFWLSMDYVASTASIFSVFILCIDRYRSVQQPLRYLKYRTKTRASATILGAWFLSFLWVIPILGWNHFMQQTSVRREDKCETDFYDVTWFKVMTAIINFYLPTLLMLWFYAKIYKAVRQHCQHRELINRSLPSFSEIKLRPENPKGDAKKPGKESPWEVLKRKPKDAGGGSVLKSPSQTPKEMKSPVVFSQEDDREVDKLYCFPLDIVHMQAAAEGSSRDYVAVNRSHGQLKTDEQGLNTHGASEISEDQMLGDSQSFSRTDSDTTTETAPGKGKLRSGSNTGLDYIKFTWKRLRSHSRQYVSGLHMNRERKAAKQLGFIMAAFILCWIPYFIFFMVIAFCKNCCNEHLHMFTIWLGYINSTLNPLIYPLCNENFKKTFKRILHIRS
"Percentage inhibition of ligand binding, Adrenergic α2A [1]","Percentage inhibition of ligand binding, Adrenergic α2B [2]","Percentage inhibition of ligand binding, Adrenergic α1B [3]",Binding data (Percentage inhibition) Histamine H1 (0.1 μM) [4],SMILES
45%,76%,94%,,"Cc1ccc2c(c1)c1c(n2CC2(O)CCc3ccccc32)CCN(C)C1 (single isomer, unassigned) [ii-111a]"
22%,0%,51%,,"Cc1ccc2c(c1)c1c(n2CC2(O)CCc3ccccc32)CCN(C)C1 (single isomer, unassigned) [ii-111b]"
8%,68%,82%,6%,"Cc1ccc2c(c1)c1c(n2CC2(O)CCCc3ccncc32)CCN(C)C1 (single isomer, unassigned) [ii-113b]"

# From patent US9035056B2, “Pyrido[4,3-b]indole and pyrido[3,4-b]indole derivatives and methods of use” (Medivation Technologies, Inc., priority 2011, dated 2015)
